# ChEMBL document CHEMBL3352542, “Synthesis, biological evaluation and molecular modeling study of 2-(1,3,4-thiadiazolyl-thio and 4-methyl-thiazolyl-thio)-quinazolin-4-ones as a new class of DHFR inhibitors” (Bioorg Med Chem Lett, 2014)
# Calls of active or inactive are those of the source. No cut-off for these calls is given here.
# Columns and labels:
# A498 = experiment: Growth inhibition of human A498 cells at 10 uM after 48 hrs; format: functional
# SR = experiment: Growth inhibition of human SR cells at 10 uM after 48 hrs; format: functional
# Pseudomonas aeruginosa = experiment: Antimicrobial activity against Pseudomonas aeruginosa assessed as inhibition zone at 200 ug/disk after 24 hrs by disc-diffusion method; format: functional; conditions: read-out: IZ
# NCI-H226 = experiment: Growth inhibition of human NCI-H226 cells at 10 uM after 48 hrs; format: functional
# A549 = experiment: Growth inhibition of human A549 cells at 10 uM after 48 hrs; format: functional
# UO-31 = experiment: (§1) Growth inhibition of human UO31 cells at 10 uM after 48 hrs; format: functional
# 786-0 = experiment: Growth inhibition of human 786-0 cells at 10 uM after 48 hrs; format: functional
# HCT-15 = experiment: Growth inhibition of human HCT15 cells at 10 uM after 48 hrs; format: functional
# HT-29 = experiment: Growth inhibition of human HT-29 cells at 10 uM after 48 hrs; format: functional
# RPMI-8226 = experiment: Growth inhibition of human RPMI8226 cells at 10 uM after 48 hrs; format: functional
# SF-539 = experiment: Growth inhibition of human SF539 cells at 10 uM after 48 hrs; format: functional
# MDA-MB-231 = experiment: Growth inhibition of human MDA-MB-231 cells at 10 uM after 48 hrs; format: functional
# Bacillus subtilis [1] = experiment: Antimicrobial activity against Bacillus subtilis assessed as inhibition of visible growth after 24 hrs by disc-diffusion method; format: functional, organism-based
# UACC-257 = experiment: Growth inhibition of human UACC257 cells at 10 uM after 48 hrs; format: functional
# SF-295 = experiment: (§2) Growth inhibition of human SF295 cells at 10 uM after 48 hrs; format: functional
# Staphylococcus aureus [2] = experiment: Antimicrobial activity against Staphylococcus aureus assessed as inhibition zone at 200 ug/disk after 24 hrs by disc-diffusion method; format: functional; conditions: read-out: IZ
# RXF 393 = experiment: Growth inhibition of human RXF393 cells at 10 uM after 48 hrs; format: functional
# PC-3 = experiment: (§3) Growth inhibition of human PC3 cells at 10 uM after 48 hrs; format: functional
# MDA-MB-435 = experiment: Growth inhibition of human MDA-MB-435 cells at 10 uM after 48 hrs; format: functional
# CCRF-CEM = experiment: Growth inhibition of human CCRF-CEM cells at 10 uM after 48 hrs; format: functional
# MCF7 = experiment: Growth inhibition of human MCF7 cells at 10 uM after 48 hrs; format: functional
# HL-60(TB) = experiment: Growth inhibition of human HL-60(TB) cells at 10 uM after 48 hrs; format: functional
# MOLT-4 = experiment: Growth inhibition of human MOLT4 cells at 10 uM after 48 hrs; format: functional
# HOP-92 = experiment: (§4) Growth inhibition of human HOP92 cells at 10 uM after 48 hrs; format: functional
# CAKI-1 = experiment: Growth inhibition of human CAKI-1 cells at 10 uM after 48 hrs; format: functional
# Staphylococcus aureus [3] = experiment: Antimicrobial activity against Staphylococcus aureus assessed as inhibition of visible growth after 24 hrs by disc-diffusion method; format: functional, organism-based
# HCT-116 = experiment: Growth inhibition of human HCT116 cells at 10 uM after 48 hrs; format: functional
# OVCAR-4 = experiment: Growth inhibition of human OVCAR4 cells at 10 uM after 48 hrs; format: functional
# SK-MEL-5 = experiment: Growth inhibition of human SK-MEL-5 cells at 10 uM after 48 hrs; format: functional
# SK-MEL-28 = experiment: Growth inhibition of human SK-MEL-28 cells at 10 uM after 48 hrs; format: functional, cell-based
# Bacillus subtilis [4] = experiment: Antimicrobial activity against Bacillus subtilis assessed as inhibition zone at 200 ug/disk after 24 hrs by disc-diffusion method; format: functional; conditions: read-out: IZ
# KM12 = experiment: Growth inhibition of human KM12 cells at 10 uM after 48 hrs; format: functional
# T47D = experiment: Growth inhibition of human T47D cells at 10 uM after 48 hrs; format: functional
# MDA-MB-468 = experiment: Growth inhibition of human MDA-MB-468 cells at 10 uM after 48 hrs; format: functional
# Escherichia coli [5] = experiment: Antimicrobial activity against Escherichia coli assessed as inhibition of visible growth after 24 hrs by disc-diffusion method; format: functional, organism-based
# UACC-62 = experiment: Growth inhibition of human UACC62 cells at 10 uM after 48 hrs; format: functional
# Dihydrofolate reductase = molecular target: T1, Dihydrofolate reductase (Bos taurus, UniProt P00376); experiment: Inhibition of bovine liver DHFR
# T1 sequence (P00376 whole entry): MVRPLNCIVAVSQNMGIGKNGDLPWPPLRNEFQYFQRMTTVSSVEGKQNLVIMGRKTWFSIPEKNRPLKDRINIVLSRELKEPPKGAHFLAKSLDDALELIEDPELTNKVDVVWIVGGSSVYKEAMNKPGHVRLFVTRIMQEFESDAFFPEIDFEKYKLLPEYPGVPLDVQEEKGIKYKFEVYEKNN
# Candida albicans = experiment: Antimicrobial activity against Candida albicans assessed as inhibition zone at 200 ug/disk after 24 hrs by disc-diffusion method; format: functional; conditions: read-out: IZ
# K562 = experiment: Growth inhibition of human K562 cells at 10 uM after 48 hrs; format: functional
# U-251 = experiment: Growth inhibition of human U251 cells at 10 uM after 48 hrs; format: functional
# SNB-19 = experiment: Growth inhibition of human SNB19 cells at 10 uM after 48 hrs; format: functional
# Malme-3M = experiment: Growth inhibition of human MALME-3M cells at 10 uM after 48 hrs; format: functional
# Hs-578T = experiment: (§5) Growth inhibition of human Hs 578T cells at 10 uM after 48 hrs; format: functional
# HOP-62 = experiment: Growth inhibition of human HOP62 cells at 10 uM after 48 hrs; format: functional
# Escherichia coli [6] = experiment: Antimicrobial activity against Escherichia coli assessed as inhibition zone at 200 ug/disk after 24 hrs by disc-diffusion method; format: functional; conditions: read-out: IZ
# NCI-H522 = experiment: Growth inhibition of human NCI-H522 cells at 10 uM after 48 hrs; format: functional
# [7] = as §1; format: functional; conditions: UO-31, 48 h, read-out: GI
# [8] = as §2; format: functional; conditions: SF-295, 48 h, read-out: GI
# [9] = as §3; format: functional; conditions: PC-3, 48 h, read-out: GI
# [10] = as §4; format: functional; conditions: HOP-92, 48 h, read-out: GI
# [11] = as §5; format: functional; conditions: read-out: GI
smiles,measurement,setting,value
Cc1ccc2nc(Sc3nnc(N)s3)n(-c3ccc(Cl)cc3)c(=O)c2c1,growth inhibition (GI),A498,inactive
same,growth inhibition (GI),SR,inactive
same,zone of inhibition at 200 µg/disc,Pseudomonas aeruginosa,12 mm
same,growth inhibition (GI),NCI-H226,inactive
same,growth inhibition (GI),A549,inactive
same,growth inhibition (GI),UO-31,inactive
same,growth inhibition (GI),786-0,inactive
same,growth inhibition (GI),HCT-15,inactive
same,growth inhibition (GI),HT-29,inactive
same,growth inhibition (GI),RPMI-8226,inactive
same,growth inhibition (GI),SF-539,inactive
same,growth inhibition (GI),MDA-MB-231,inactive
same,Activity,Bacillus subtilis [1],Active
same,growth inhibition (GI),UACC-257,inactive
same,growth inhibition (GI),SF-295,inactive
same,zone of inhibition at 200 µg/disc,Staphylococcus aureus [2],24 mm
same,growth inhibition (GI),RXF 393,inactive
same,growth inhibition (GI),PC-3,inactive
same,growth inhibition (GI),MDA-MB-435,inactive
same,growth inhibition (GI),CCRF-CEM,inactive
same,growth inhibition (GI),MCF7,inactive
same,growth inhibition (GI),HL-60(TB),inactive
same,growth inhibition (GI),MOLT-4,inactive
same,growth inhibition (GI),HOP-92,inactive
same,growth inhibition (GI),CAKI-1,inactive
same,Activity,Staphylococcus aureus [3],Active
same,growth inhibition (GI),HCT-116,inactive
same,growth inhibition (GI),OVCAR-4,inactive
same,growth inhibition (GI),SK-MEL-5,inactive
same,growth inhibition (GI),SK-MEL-28,inactive
same,zone of inhibition at 200 µg/disc,Bacillus subtilis [4],26 mm
same,growth inhibition (GI),KM12,inactive
same,growth inhibition (GI),T47D,inactive
same,growth inhibition (GI),MDA-MB-468,inactive
same,Activity,Escherichia coli [5],Active
same,growth inhibition (GI),UACC-62,inactive
same,IC50,Dihydrofolate reductase,0.7 µM
same,zone of inhibition at 200 µg/disc,Candida albicans,8 mm
same,growth inhibition (GI),K562,inactive
same,growth inhibition (GI),U-251,inactive
same,growth inhibition (GI),SNB-19,inactive
same,growth inhibition (GI),Malme-3M,inactive
same,growth inhibition (GI),Hs-578T,inactive
same,growth inhibition (GI),HOP-62,inactive
same,zone of inhibition at 200 µg/disc,Escherichia coli [6],18 mm
same,growth inhibition (GI),NCI-H522,inactive
COc1cc2nc(Sc3nnc(N)s3)n(-c3ccc(Cl)cc3)c(=O)c2cc1OC,inhibition of growth at 10 µM,"A498; A498, 48 h, read-out: GI",18.8%
same,inhibition of growth at 10 µM,SR; read-out: GI,14.4%
same,zone of inhibition at 200 µg/disc,Pseudomonas aeruginosa,8 mm
same,inhibition of growth at 10 µM,[7],23.6%
same,inhibition of growth at 10 µM,[8],12.1%
same,zone of inhibition at 200 µg/disc,Staphylococcus aureus [2],8 mm
same,inhibition of growth at 10 µM,[9],11.2%
same,inhibition of growth at 10 µM,"HL-60(TB); HL-60, 48 h, read-out: GI",31.5%
same,inhibition of growth at 10 µM,[10],40.9%
same,inhibition of growth at 10 µM,"CAKI-1; CAKI-1, 48 h, read-out: GI",12.6%
same,zone of inhibition at 200 µg/disc,Bacillus subtilis [4],8 mm
same,inhibition of growth at 10 µM,T47D; read-out: GI,13.7%
same,IC50,Dihydrofolate reductase,6 µM
same,zone of inhibition at 200 µg/disc,Candida albicans,8 mm
same,inhibition of growth at 10 µM,"K562; K562, 48 h, read-out: GI",15.3%
same,inhibition of growth at 10 µM,"U-251; U-251, 48 h, read-out: GI",11.5%
same,inhibition of growth at 10 µM,"SNB-19; SNB-19, 48 h, read-out: GI",11.9%
same,inhibition of growth at 10 µM,Malme-3M; read-out: GI,12.4%
same,inhibition of growth at 10 µM,[11],10.9%
same,zone of inhibition at 200 µg/disc,Escherichia coli [6],8 mm
